Assay results taken from the NIST ThermoML archive (doi:10.1016/j.fluid.2013.10.029).

Assays:
[1] = Liquid; for mass density: 101 kPa, Vibrating tube method; for vapor or sublimation pressure: Ebulliometric method (Recirculating still)
[2] = excess molar enthalpy (molar enthalpy of mixing); xn = mol fraction of the nth substance listed; conditions: 298.15 K, 101 kPa, Liquid, isothermal titration calorimeter
[3] = xn = mol fraction of the nth substance listed; conditions: 101.33 kPa, Liquid, Vibrating tube method, x2 = 0

c1ccncc1 [pyridine]
[1]
Conditions | mass density [kg/m3] | vapor or sublimation pressure [kPa]
298.15 K | 978.01 | –
308.15 K | 967.91 | –
318.15 K | 957.76 | –
328.15 K | 947.56 | –
338.15 K | 937.3 | –
353.15 K | – | 32.3
363.15 K | – | 45.9
373.15 K | – | 63.7

c1ccccc1 [benzene]
[1]
Conditions | vapor or sublimation pressure [kPa]
338.15 K | 62.1
348.15 K | 86.4

c1cc[nH]c1 [pyrrole] + C1CCCCC1
[2]
Conditions | excess molar enthalpy [kcal/mol]
x1 = 0.015 | 0.056
x1 = 0.03 | 0.0991
x1 = 0.0451 | 0.131
x1 = 0.0601 | 0.155
x1 = 0.0752 | 0.175
x1 = 0.0905 | 0.192
x1 = 0.1057 | 0.207
x1 = 0.1208 | 0.221
x1 = 0.1358 | 0.233
x1 = 0.1543 | 0.246
x1 = 0.1692 | 0.255
x1 = 0.184 | 0.264
x1 = 0.1989 | 0.272
x1 = 0.2139 | 0.279
x1 = 0.2288 | 0.286
x1 = 0.2437 | 0.292
x1 = 0.2587 | 0.297
x1 = 0.2737 | 0.302
x1 = 0.2887 | 0.307
x1 = 0.3037 | 0.311
x1 = 0.3186 | 0.315
x1 = 0.3337 | 0.319
x1 = 0.3485 | 0.322
x1 = 0.3677 | 0.327
x1 = 0.3829 | 0.33
x1 = 0.3982 | 0.333
x1 = 0.4135 | 0.335
x1 = 0.4287 | 0.337
x1 = 0.444 | 0.338
x1 = 0.4592 | 0.34
x1 = 0.4745 | 0.341
x1 = 0.4898 | 0.341
x1 = 0.505 | 0.341
x1 = 0.5203 | 0.341
x1 = 0.5355 | 0.34
x1 = 0.5507 | 0.34
x1 = 0.566 | 0.338
x1 = 0.5812 | 0.337
x1 = 0.5964 | 0.335
x1 = 0.6116 | 0.332
x1 = 0.6269 | 0.329
x1 = 0.6421 | 0.325
x1 = 0.6573 | 0.321
x1 = 0.6725 | 0.317
x1 = 0.6878 | 0.312
x1 = 0.703 | 0.306
x1 = 0.7182 | 0.298
x1 = 0.731 | 0.289
x1 = 0.7468 | 0.28
x1 = 0.7627 | 0.269
x1 = 0.7786 | 0.259
x1 = 0.7945 | 0.248
x1 = 0.8104 | 0.236
x1 = 0.8263 | 0.223
x1 = 0.8421 | 0.209
x1 = 0.858 | 0.193
x1 = 0.874 | 0.177
x1 = 0.8899 | 0.159
x1 = 0.9058 | 0.139
x1 = 0.9218 | 0.119
x1 = 0.9377 | 0.0962
x1 = 0.9537 | 0.0726
x1 = 0.9691 | 0.0481
x1 = 0.9846 | 0.0222

C1CCCCC1 [cyclohexane]
[1]
Conditions | vapor or sublimation pressure [kPa]
338.15 K | 61.5
348.15 K | 84.7

c1cc[nH]c1 [pyrrole] + CCCO
[2]
Conditions | excess molar enthalpy [kcal/mol]
x1 = 0.0299 | 0.00707
x1 = 0.0598 | 0.0144
x1 = 0.0897 | 0.0255
x1 = 0.1197 | 0.0392
x1 = 0.1497 | 0.0547
x1 = 0.1796 | 0.071
x1 = 0.2096 | 0.0877
x1 = 0.2396 | 0.104
x1 = 0.2696 | 0.12
x1 = 0.2996 | 0.136
x1 = 0.3296 | 0.15
x1 = 0.3596 | 0.163
x1 = 0.3896 | 0.175
x1 = 0.4197 | 0.185
x1 = 0.4497 | 0.193
x1 = 0.4652 | 0.199
x1 = 0.4797 | 0.2
x1 = 0.4902 | 0.205
x1 = 0.5202 | 0.211
x1 = 0.5502 | 0.215
x1 = 0.5803 | 0.217
x1 = 0.6103 | 0.218
x1 = 0.6403 | 0.216
x1 = 0.6703 | 0.212
x1 = 0.7003 | 0.206
x1 = 0.7303 | 0.198
x1 = 0.7603 | 0.188
x1 = 0.7903 | 0.175
x1 = 0.8203 | 0.159
x1 = 0.8503 | 0.14
x1 = 0.8802 | 0.119
x1 = 0.9101 | 0.0942
x1 = 0.9401 | 0.0658
x1 = 0.97 | 0.0338

c1cc[nH]c1 [pyrrole]
[1]
Conditions | mass density [kg/m3] | vapor or sublimation pressure [kPa]
298.15 K | 965.54 | –
308.15 K | 956.83 | –
318.15 K | 948.03 | –
328.15 K | 939.14 | –
338.15 K | 930.13 | 9.4
348.15 K | – | 14.6
353.15 K | – | 18
358.15 K | – | 21.9
363.15 K | – | 26.8
373.15 K | – | 38.5

c1ccncc1 [pyridine] + c1cc[nH]c1
[3]
Conditions | mass density [kg/m3]
298.15 K | 978.01
308.15 K | 967.91
318.15 K | 957.76
328.15 K | 947.56
338.15 K | 937.3

c1cc[nH]c1 [pyrrole] + CCCCO
[2]
Conditions | excess molar enthalpy [kcal/mol]
x1 = 0.0262 | 0.00454
x1 = 0.0776 | 0.0248
x1 = 0.1154 | 0.0454
x1 = 0.1526 | 0.0679
x1 = 0.189 | 0.091
x1 = 0.2248 | 0.114
x1 = 0.2599 | 0.135
x1 = 0.2944 | 0.155
x1 = 0.3283 | 0.174
x1 = 0.3616 | 0.19
x1 = 0.3943 | 0.205
x1 = 0.4265 | 0.217
x1 = 0.4581 | 0.228
x1 = 0.4891 | 0.236
x1 = 0.5196 | 0.242
x1 = 0.5497 | 0.246
x1 = 0.5703 | 0.246
x1 = 0.5792 | 0.248
x1 = 0.5803 | 0.246
x1 = 0.6003 | 0.247
x1 = 0.6082 | 0.248
x1 = 0.6203 | 0.246
x1 = 0.6225 | 0.248
x1 = 0.6403 | 0.244
x1 = 0.6603 | 0.241
x1 = 0.6803 | 0.238
x1 = 0.7003 | 0.233
x1 = 0.7203 | 0.227
x1 = 0.7403 | 0.22
x1 = 0.7603 | 0.211
x1 = 0.7803 | 0.202
x1 = 0.8002 | 0.191
x1 = 0.8202 | 0.179
x1 = 0.8403 | 0.166
x1 = 0.8603 | 0.151
x1 = 0.8802 | 0.135
x1 = 0.9002 | 0.117
x1 = 0.9201 | 0.0972
x1 = 0.9401 | 0.0761
x1 = 0.9601 | 0.0532
x1 = 0.98 | 0.0285

c1cc[nH]c1 [pyrrole] + CCCCCO
[2]
Conditions | excess molar enthalpy [kcal/mol]
x1 = 0.0374 | 0.00848
x1 = 0.0962 | 0.0373
x1 = 0.1388 | 0.0644
x1 = 0.1801 | 0.0927
x1 = 0.2202 | 0.12
x1 = 0.259 | 0.147
x1 = 0.2967 | 0.171
x1 = 0.3333 | 0.193
x1 = 0.3689 | 0.212
x1 = 0.4034 | 0.229
x1 = 0.437 | 0.243
x1 = 0.4696 | 0.254
x1 = 0.5014 | 0.263
x1 = 0.5323 | 0.269
x1 = 0.5604 | 0.271
x1 = 0.5624 | 0.273
x1 = 0.5804 | 0.272
x1 = 0.5916 | 0.275
x1 = 0.6004 | 0.273
x1 = 0.6202 | 0.275
x1 = 0.6204 | 0.272
x1 = 0.6404 | 0.271
x1 = 0.648 | 0.272
x1 = 0.6604 | 0.268
x1 = 0.6616 | 0.27
x1 = 0.6804 | 0.264
x1 = 0.7004 | 0.259
x1 = 0.7204 | 0.253
x1 = 0.7404 | 0.245
x1 = 0.7604 | 0.236
x1 = 0.7804 | 0.226
x1 = 0.8004 | 0.214
x1 = 0.8204 | 0.2
x1 = 0.8404 | 0.185
x1 = 0.8603 | 0.169
x1 = 0.8803 | 0.15
x1 = 0.9002 | 0.13
x1 = 0.9202 | 0.108
x1 = 0.9401 | 0.084
x1 = 0.9601 | 0.0576
x1 = 0.98 | 0.0289
